From patent US7449477B2, “7-phenyl-isoquinoline-5-sulfonylamino derivatives as inhibitors of akt (protein kinase B)” (Eli Lilly and Company, priority 2003, dated 2008)
Counter-ions that a name gives are not always drawn.

molecular target: T1, active human Akt1 (Homo sapiens, UniProt P31749); test: Akt1 Phosphorylation Assay (phosphocellulose filter-binding, 33P-Crosstide); format: biochemical; conditions: active human recombinant Akt1 (full-length) 10 nM; 12.5 μM Crosstide; 20 μM ATP; 30 minutes at room temperature
T1 construct: Active human recombinant Akt1 (full-length) purified from Sf9 insect cells; purchased Upstate Biotechnology, Inc. 14-276; host or cells: Sf9 insect cells
T1 sequence (P31749 whole entry): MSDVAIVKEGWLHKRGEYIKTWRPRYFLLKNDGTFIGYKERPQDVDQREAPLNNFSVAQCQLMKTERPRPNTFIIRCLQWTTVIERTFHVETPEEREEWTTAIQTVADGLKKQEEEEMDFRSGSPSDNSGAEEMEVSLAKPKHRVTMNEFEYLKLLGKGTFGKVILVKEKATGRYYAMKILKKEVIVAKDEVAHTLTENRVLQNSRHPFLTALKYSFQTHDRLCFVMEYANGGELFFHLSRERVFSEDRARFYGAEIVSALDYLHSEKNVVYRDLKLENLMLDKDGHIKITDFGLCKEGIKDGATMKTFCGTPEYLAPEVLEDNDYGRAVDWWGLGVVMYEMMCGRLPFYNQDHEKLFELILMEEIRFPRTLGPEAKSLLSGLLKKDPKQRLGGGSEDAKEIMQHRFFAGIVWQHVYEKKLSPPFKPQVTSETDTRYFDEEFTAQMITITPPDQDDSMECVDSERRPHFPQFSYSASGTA
Protocol: Akt1 Phosphorylation Assay
The assay described measures the phosphorylation of Crosstide by active human Akt1 and other Akt isoforms. Crosstide contains a consensus sequence derived from Akt substrates GSK3b and forkhead transcription factors (FKs). The ^33P-labeled Crosstide substrate is captured by phosphocellulose membrane filter plates.
Active human recombinant Akt1 (full-length) purified from Sf9 insect cells is from Upstate Biotechnology, Inc. (Cat. #14-276, 405 μg/ml). Crosstide substrate, NH2-GRPRTSSFAEG-COOH (M.W.1164) is purchased from Multiple Peptide System (Cat. # L59/GR145-153).
Solution (A): 20% DMSO (dimethylsulphoxide) or Compound in 20% DMSO; Solution (B): Assay Buffer Mix: 31.25 μM Crosstide, 37.5 mM MgCl2, 87.5 mM HEPES, pH 7.3, 50 μM ATP γ-^33P-ATP, 0.05 μCi/μl; Solution (C): Akt Kinase Mix: 31.25 mM HEPES, pH 7.3; 1 mM DTT, 25 nM UBI Akt1.
Procedure for Phosphocellulose Filter-Binding Assay
Ten μl of Solution (A) are first mixed with 20 μl Solution (B). The enzymatic reaction is initiated by adding 20 μl Solution (C) to the mixture. (Final concentration or amount in a 50-μl reaction mix: 4% DMSO or various compound concentration in 4% DMSO; 12.5 μM Crosstide; 15 mM MgCl2; 35 mM HEPES, pH7.3; 20 μM ATP; 1 μCi γ-^33P-ATP; 0.4 mM DTT; 10 nM UBI Akt1.) The reactions are performed in 96-well microtiter plates.
After 30 minutes at room temperature, the reaction is terminated by adding 80 μl of 10% H3PO4. An aliquot of 100 μl from each well is transferred to the phosphocellulose filter plate (Millipore MultiScreen, Catalog #MAPHN0B50). After 30 minutes, the reaction mix is filtered with a Millipore manifold following by 3 washes with 0.5% H3PO4. The filter is then vacuum-dried and the plate is fitted onto a Packard carrier. 100 μl/well Microscint20 are added and the contents are counted in a Packard Top Count.

IC50, ≤ 2000 nM:
O=[N+]([O-])c1ccc(CC(O)CNCCNS(=O)(=O)c2cc(-c3ccccc3)cc3cnccc23)cc1 (racemic) [Example 83, 7-Phenyl-isoquinoline-5-sulfonic acid [2-(2-hydroxy-3-(4-nitrophenyl)-propylamino)-ethyl]-amide, dihydrochloride salt]
O=[N+]([O-])c1ccc(CC(O)CNCCNS(=O)(=O)c2cc(-c3ccccc3)cc3cnccc23)cc1 (single isomer, unassigned; isomer 1) [Example 85, 7-Phenyl-isoquinoline-5-sulfonic acid [2-(2-hydroxy-3-(4-nitrophenyl)-propylamino)-ethyl]-amide isomer 1, dihydrochloride salt]
O=[N+]([O-])c1ccc(C(O)C(O)CNCCNS(=O)(=O)c2cc(-c3ccccc3)cc3cnccc23)cc1 (single isomer, unassigned; isomer 1) [Example 88, 7-Phenyl-isoquinoline-5-sulfonic acid [2-(2,3-dihydroxy-3-(4-nitrophenyl)-propylamino)-ethyl]-amide isomer 1, dihydrochloride salt]
O=[N+]([O-])c1ccc(CCCNCCNS(=O)(=O)c2cc(-c3ccccc3)cc3cnccc23)cc1 [Example 3, 7-Phenyl-isoquinoline-5-sulfonic acid {2-[3-(4-nitrophenyl)-propylamino]-ethyl}-amide, dihydrochloride salt]
O=S(=O)(NCCNCCCc1ccc(Br)cc1)c1cc(-c2ccccc2)cc2cnccc12 [Example 4, 7-Phenyl-isoquinoline-5-sulfonic acid {2-[3-(4-bromophenyl)-propylamino]-ethyl}-amide, dihydrochloride salt]
O=S(=O)(NCCNCCCc1ccccc1N1C=CC=NC=C1)c1cc(-c2ccccc2)cc2cnccc12 [Example 7, 7-Phenyl-isoquinoline-5-sulfonic acid {2-[3-(2-[1,4]diazepin-1-yl-phenyl)-propylamino]-ethyl}-amide, tetrahydrochloride salt]
O=S(=O)(NCCNCCCc1ccccc1N1CCNCC1)c1cc(-c2ccccc2)cc2cnccc12 [Example 11, 7-Phenyl-isoquinoline-5-sulfonic acid {2-[3-(2-(piperazin-1-yl-phenyl)-propylamino]-ethyl}-amide, tetrahydrochloride salt]
O=S(=O)(NCCNCCCc1cccc(O)c1)c1cc(-c2ccccc2)cc2cnccc12 [Example 18, 7-Phenyl-isoquinoline-5-sulfonic acid {2-[3-(3-hydroxyphenyl)-propylamino]-ethyl}-amide, dihydrochloride salt]
O=S(=O)(NCCNCCCc1ccc(O)cc1)c1cc(-c2ccccc2)cc2cnccc12 [Example 19, 7-Phenyl-isoquinoline-5-sulfonic acid {2-[3-(4-hydroxyphenyl)-propylamino]-ethyl}-amide, dihydrochloride salt]
CCCNS(=O)(=O)c1ccc(CCCNCCNS(=O)(=O)c2cc(-c3ccccc3)cc3cnccc23)cc1 [Example 21, 7-Phenyl-isoquinoline-5-sulfonic acid {2-[3-(4-(N-propylamino-sulfonyl)phenyl)-propylamino]-ethyl}-amide, dihydrochloride salt]
CN(C)S(=O)(=O)c1ccc(CCCNCCNS(=O)(=O)c2cc(-c3ccccc3)cc3cnccc23)cc1 [Example 24, 7-Phenyl-isoquinoline-5-sulfonic acid {2-[3-(4-(N,N-dimethyl-aminosulfonyl)phenyl)-propyl-amino]-ethyl}-amide, dihydrochloride salt]
O=C(Nc1ccc(CCCNCCNS(=O)(=O)c2cc(-c3ccccc3)cc3cnccc23)cc1)C1CC1 [Example 25, 7-Phenyl-isoquinoline-5-sulfonic acid {2-[3-(4-(cyclopropyl-carbonylamino)phenyl)-propylamino]-ethyl}-amide, dihydrochloride salt]
O=S(=O)(NCCNCCCc1ccc(OC(F)(F)C(F)F)cc1)c1cc(-c2ccccc2)cc2cnccc12 [Example 27, 7-Phenyl-isoquinoline-5-sulfonic acid {2-[3-(4-(1,1,2,2-tetrafluoroethoxy)phenyl)-propylamino]-ethyl}-amide, dihydrochloride salt]
CC(=O)Nc1ccc(CCCNCCNS(=O)(=O)c2cc(-c3ccccc3)cc3cnccc23)cc1 [Example 28, 7-Phenyl-isoquinoline-5-sulfonic acid {2-[3-(4-acetamidophenyl)-propylamino]-ethyl}-amide, dihydrochloride salt]
O=S(=O)(NCCNCCCc1ccc(OC(F)F)cc1)c1cc(-c2ccccc2)cc2cnccc12 [Example 30, 7-Phenyl-isoquinoline-5-sulfonic acid {2-[3-(4-difluoromethoxy-phenyl)-propylamino]-ethyl}-amide, dihydrochloride salt]
COc1cccc(CCCNCCNS(=O)(=O)c2cc(-c3ccccc3)cc3cnccc23)c1 [Example 31, 7-Phenyl-isoquinoline-5-sulfonic acid {2-[3-(3-methoxyphenyl)-propylamino]-ethyl}-amide, dihydrochloride salt]
N#Cc1cccc(CCCNCCNS(=O)(=O)c2cc(-c3ccccc3)cc3cnccc23)c1 [Example 32, 7-Phenyl-isoquinoline-5-sulfonic acid {2-[3-(3-cyanophenyl)-propylamino]-ethyl}-amide, dihydrochloride salt]
N#Cc1ccc(CCCNCCNS(=O)(=O)c2cc(-c3ccccc3)cc3cnccc23)cc1 [Example 33, 7-Phenyl-isoquinoline-5-sulfonic acid {2-[3-(4-cyanophenyl)-propylamino]-ethyl}-amide, dihydrochloride salt]
CSc1ccc(CCCNCCNS(=O)(=O)c2cc(-c3ccccc3)cc3cnccc23)cc1 [Example 35, 7-Phenyl-isoquinoline-5-sulfonic acid {2-[3-(4-methylthiophenyl)-propylamino]-ethyl}-amide, dihydrochloride salt]
O=S(=O)(NCCNCCCc1ccc(F)cc1-c1ccccc1)c1cc(-c2ccccc2)cc2cnccc12 [Example 36, 7-Phenyl-isoquinoline-5-sulfonic acid {2-[3-(5-fluoro-biphenyl-2-yl)-propylamino]-ethyl}-amide, dihydrochloride salt]
O=[N+]([O-])c1ccc(CCCNCCNS(=O)(=O)c2cc(-c3ccccc3)cc3cnccc23)c(Cl)c1 [Example 38, 7-Phenyl-isoquinoline-5-sulfonic acid {2-[3-(2-chloro-4-nitrophenyl)-propylamino]-ethyl}-amide, dihydrochloride salt]
Cc1ccc([N+](=O)[O-])cc1CCCNCCNS(=O)(=O)c1cc(-c2ccccc2)cc2cnccc12 [Example 39, 7-Phenyl-isoquinoline-5-sulfonic acid {2-[3-(2-methyl-5-nitrophenyl)-propylamino]-ethyl}-amide, dihydrochloride salt]
Cc1cc([N+](=O)[O-])ccc1CCCNCCNS(=O)(=O)c1cc(-c2ccccc2)cc2cnccc12 [Example 40, 7-Phenyl-isoquinoline-5-sulfonic acid {2-[3-(2-methyl-4-nitrophenyl)-propylamino]-ethyl}-amide, dihydrochloride salt]
O=[N+]([O-])c1ccc(CCCNCCNS(=O)(=O)c2cc(-c3ccccc3)cc3cnccc23)c(-c2ccccc2)c1 [Example 42, 7-Phenyl-isoquinoline-5-sulfonic acid {2-[3-(5-nitro-biphenyl-2-yl)-propylamino]-ethyl}-amide, dihydrochloride salt]
O=S(=O)(NCCNCCCc1ccc(Cl)cc1N1CCNCC1)c1cc(-c2ccccc2)cc2cnccc12 [Example 44, 7-Phenyl-isoquinoline-5-sulfonic acid {2-[3-(4-chloro-2-piperazin-1-yl-phenyl)-propylamino]-ethyl}-amide, tetrahydrochloride salt]
O=[N+]([O-])c1cccc(-c2cc(Cl)ccc2CCCNCCNS(=O)(=O)c2cc(-c3ccccc3)cc3cnccc23)c1 [Example 47, 7-Phenyl-isoquinoline-5-sulfonic acid {2-[3-(5-chloro-3′-nitro-biphenyl-2-yl)-propylamino]-ethyl}-amide, dihydrochloride salt]
